According to patent US20240383875A1, “Benzimidazole Pyridine Derivatives” (Hoffmann-La Roche Inc., priority 2022, published 2024):

Tests used:
Format in all cases: biochemical
SIK2 = SIK2 (Homo sapiens, UniProt Q9H0K1); experiment: Enzymatic activity assay SIK2, RapidFire mass spectrometry (phosphorylation of CHK-peptide); conditions: RapidFire MS, inhibition of SIK2; read-out: SIK2 RF IC50
In short: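 Read-out is the summed phospho-species fraction of CHK-peptide by RapidFire mass spectrometry, normalized between DMSO and 1 μM YKL-05-099. The reaction used 0.5 nM SIK2, 100 μM ATP and 10 μM peptide solutions in HEPES pH 7.0/10 mM magnesium acetate for 45 min at ambient temperature.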

SIK3 = SIK3 (Homo sapiens, UniProt Q9Y2K2); experiment: Enzymatic activity assay SIK3, RapidFire mass spectrometry (phosphorylation of CHK-peptide); conditions: RapidFire MS, inhibition of SIK3; read-out: SIK3 RF IC50
In short: (§1)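 Human SIK1/2/3, 5/0.5/1.5 nM; 12.5 mM HEPES pH 7.0, 10 mM Mg acetate, 0.005% BSA. 30 min cpd pre-inc, + CHK-peptide (10 μM soln) + ATP (100 μM soln), 45 min RT. Formic acid stop; RF-MS phospho ratio; IC50.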

SIK1 = SIK1 (Homo sapiens, UniProt P57059); experiment: Enzymatic activity assay SIK1, RapidFire mass spectrometry (phosphorylation of CHK-peptide); conditions: RapidFire MS, inhibition of SIK1; read-out: SIK1 RF IC50
In short: as §1

SIK3, sequence (Q9Y2K2 whole entry): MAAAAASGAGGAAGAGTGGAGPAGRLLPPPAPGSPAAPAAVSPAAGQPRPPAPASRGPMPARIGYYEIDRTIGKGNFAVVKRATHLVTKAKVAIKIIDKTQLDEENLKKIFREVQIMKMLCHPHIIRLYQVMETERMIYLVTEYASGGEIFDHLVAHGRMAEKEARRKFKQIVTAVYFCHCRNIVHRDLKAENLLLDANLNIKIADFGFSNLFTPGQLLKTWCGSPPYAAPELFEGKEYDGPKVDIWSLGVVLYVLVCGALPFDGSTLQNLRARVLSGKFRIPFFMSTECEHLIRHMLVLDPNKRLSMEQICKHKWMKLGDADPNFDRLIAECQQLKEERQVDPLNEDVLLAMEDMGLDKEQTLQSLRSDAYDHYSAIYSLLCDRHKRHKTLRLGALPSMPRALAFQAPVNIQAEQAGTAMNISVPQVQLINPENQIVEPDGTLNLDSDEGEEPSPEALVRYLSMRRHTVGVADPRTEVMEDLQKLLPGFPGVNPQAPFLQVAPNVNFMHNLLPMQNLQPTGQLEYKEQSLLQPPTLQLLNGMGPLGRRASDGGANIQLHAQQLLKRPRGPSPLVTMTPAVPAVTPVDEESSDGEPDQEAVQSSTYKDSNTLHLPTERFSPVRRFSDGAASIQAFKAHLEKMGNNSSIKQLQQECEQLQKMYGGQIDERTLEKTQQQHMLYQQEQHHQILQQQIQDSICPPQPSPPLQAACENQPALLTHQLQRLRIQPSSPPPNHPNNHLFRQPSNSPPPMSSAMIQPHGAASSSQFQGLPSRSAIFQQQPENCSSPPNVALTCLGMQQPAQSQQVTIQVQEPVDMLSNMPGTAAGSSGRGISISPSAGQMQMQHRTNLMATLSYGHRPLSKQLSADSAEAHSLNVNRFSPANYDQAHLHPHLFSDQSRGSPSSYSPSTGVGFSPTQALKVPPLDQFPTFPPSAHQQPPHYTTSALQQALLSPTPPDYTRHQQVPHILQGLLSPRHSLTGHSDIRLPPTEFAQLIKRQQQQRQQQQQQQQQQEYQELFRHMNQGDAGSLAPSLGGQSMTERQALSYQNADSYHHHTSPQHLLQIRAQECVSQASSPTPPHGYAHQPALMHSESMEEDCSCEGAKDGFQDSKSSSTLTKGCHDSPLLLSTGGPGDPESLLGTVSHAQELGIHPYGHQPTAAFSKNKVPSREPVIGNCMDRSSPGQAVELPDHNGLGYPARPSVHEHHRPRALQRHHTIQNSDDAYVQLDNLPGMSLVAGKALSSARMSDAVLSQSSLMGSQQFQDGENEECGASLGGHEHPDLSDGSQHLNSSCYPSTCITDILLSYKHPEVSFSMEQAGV
SIK1, sequence (P57059 whole entry): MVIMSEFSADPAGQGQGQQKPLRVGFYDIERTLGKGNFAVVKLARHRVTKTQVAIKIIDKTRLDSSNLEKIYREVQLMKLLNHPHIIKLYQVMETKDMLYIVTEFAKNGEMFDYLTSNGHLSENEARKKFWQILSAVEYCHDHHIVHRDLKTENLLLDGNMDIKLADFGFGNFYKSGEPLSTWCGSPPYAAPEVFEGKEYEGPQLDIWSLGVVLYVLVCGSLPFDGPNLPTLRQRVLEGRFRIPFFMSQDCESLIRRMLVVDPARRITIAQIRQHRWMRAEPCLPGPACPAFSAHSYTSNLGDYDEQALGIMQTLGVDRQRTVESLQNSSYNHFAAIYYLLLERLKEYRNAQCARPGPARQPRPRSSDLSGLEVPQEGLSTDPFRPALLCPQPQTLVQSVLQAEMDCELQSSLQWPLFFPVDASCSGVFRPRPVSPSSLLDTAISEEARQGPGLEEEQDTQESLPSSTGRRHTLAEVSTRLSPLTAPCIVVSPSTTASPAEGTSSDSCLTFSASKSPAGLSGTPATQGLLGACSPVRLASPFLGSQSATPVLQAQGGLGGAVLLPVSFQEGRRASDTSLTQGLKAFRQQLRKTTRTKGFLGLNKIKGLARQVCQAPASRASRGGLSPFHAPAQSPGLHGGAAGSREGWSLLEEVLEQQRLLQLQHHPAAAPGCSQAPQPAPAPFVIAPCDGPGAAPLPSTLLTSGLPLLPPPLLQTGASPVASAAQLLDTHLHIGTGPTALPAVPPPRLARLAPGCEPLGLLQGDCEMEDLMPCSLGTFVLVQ
SIK2, sequence (Q9H0K1 whole entry): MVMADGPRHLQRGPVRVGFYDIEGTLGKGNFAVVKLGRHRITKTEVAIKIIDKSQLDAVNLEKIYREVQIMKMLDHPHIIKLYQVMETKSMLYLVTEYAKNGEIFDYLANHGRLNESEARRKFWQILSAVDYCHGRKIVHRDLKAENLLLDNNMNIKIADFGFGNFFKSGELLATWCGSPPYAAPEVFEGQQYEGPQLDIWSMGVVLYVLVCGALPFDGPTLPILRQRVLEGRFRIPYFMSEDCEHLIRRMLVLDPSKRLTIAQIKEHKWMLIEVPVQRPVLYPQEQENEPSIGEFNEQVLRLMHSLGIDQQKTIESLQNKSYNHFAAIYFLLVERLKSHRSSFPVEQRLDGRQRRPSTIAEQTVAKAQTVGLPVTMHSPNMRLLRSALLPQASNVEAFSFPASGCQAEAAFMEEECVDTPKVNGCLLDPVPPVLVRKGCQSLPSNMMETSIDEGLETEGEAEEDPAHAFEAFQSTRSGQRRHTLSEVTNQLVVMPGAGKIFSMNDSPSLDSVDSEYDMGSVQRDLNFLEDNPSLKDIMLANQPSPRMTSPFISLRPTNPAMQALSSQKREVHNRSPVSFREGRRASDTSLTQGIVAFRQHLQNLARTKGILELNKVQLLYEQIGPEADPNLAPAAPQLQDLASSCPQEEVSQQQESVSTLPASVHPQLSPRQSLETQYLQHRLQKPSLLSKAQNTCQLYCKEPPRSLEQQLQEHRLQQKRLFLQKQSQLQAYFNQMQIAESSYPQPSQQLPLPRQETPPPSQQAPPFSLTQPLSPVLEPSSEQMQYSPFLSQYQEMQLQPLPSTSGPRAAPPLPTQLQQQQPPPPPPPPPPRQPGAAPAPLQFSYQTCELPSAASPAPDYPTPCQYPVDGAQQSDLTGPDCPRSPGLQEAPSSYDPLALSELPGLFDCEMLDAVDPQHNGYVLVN

| Structure (SMILES) | IC50 (SIK2) [nM] | IC50 (SIK3) [nM] | IC50 (SIK1) [nM] |
| --- | --- | --- | --- |
| COc1cc2ncn(-c3ccc([C@H](C)O)c(-c4cccc(C#N)c4)n3)c2cc1OC [Example 37, (S)-3-(6-(5,6-Dimethoxy-1H-benzo[d]imidazol-1-yl)-3-(l-hydroxyethyl)pyridin-2-yl)benzonitrile] | 4.9 | 22.4 | 15 |
| Cc1ccc(Nc2cc3ncn(-c4ccc(C(C)O)c(-n5nc(C#N)cc5C)n4)c3cc2F)nn1 (stereo not drawn) [Example 93, 1-[6-[6-Fluoro-5-[(6-methylpyridazin-3-yl)amino]benzimidazol-1-yl]-3-(1-hydroxyethyl)-2-pyridyl]-5-methyl-pyrazole-3-carbonitrile] | 0.5 | 0.6 | 97 |
| Cc1ccc(Nc2ccc3ncn(-c4ccc(C(C)O)c(N(C)CC5(C#N)CC5)n4)c3c2)nn1 (stereo not drawn) [Example 172, 1-[[[3-(1-hydroxyethyl)-6-[6-[(6-methylpyridazin-3-yl)amino]benzimidazol-1-yl]-2-pyridyl]-methyl-amino]methyl]cyclopropanecarbonitrile] | 2090 | 1850 | 2620 |
| Cc1ccc(Nc2ccc3c(c2)ncn3-c2ccc([C@@H](C)O)c(-n3nc(C(F)F)cc3C)n2)nn1 [Example 230, (1R)-1-[2-[3-(Difluoromethyl)-5-methyl-pyrazol-1-yl]-6-[5-[(6-methylpyridazin-3-yl)amino]benzimidazol-1-yl]-3-pyridyl]ethanol] | 72.4 | 19.7 | 7090 |
| Cc1cc(C#N)nn1-c1nc(-n2cnc3ccc(-c4ccc5c(n4)C(=O)N(C)C5)cc32)ccc1C(C)O (stereo not drawn) [Example 365, 1-[3-(1-hydroxyethyl)-6-[6-(6-methyl-7-oxo-5H-pyrrolo[3,4-b]pyridin-2-yl)benzimidazol-1-yl]-2-pyridyl]-5-methyl-pyrazole-3-carbonitrile] | 44.6 | 446 | 20 |
| Cc1ccc(Nc2ccc3c(c2)ncn3-c2ccc(C(C)O)c(-c3cc(C(F)(F)F)ncc3C)n2)nn1 (stereo not drawn) [Example 332, 1-[6-[5-[(6-methylpyridazin-3-yl)amino]benzimidazol-1-yl]-2-[5-methyl-2-(trifluoromethyl)-4-pyridyl]-3-pyridyl]ethanol] | 5.3 | 2.8 | 316 |
| COc1cc(C)n(-c2nc(-n3cnc4cc(Nc5ccc(C)nn5)ccc43)ccc2CO)n1 [Example 158, [2-(3-methoxy-5-methyl-pyrazol-1-yl)-6-[5-[(6-methylpyridazin-3-yl)amino]benzimidazol-1-yl]-3-pyridyl]methanol] | 41.9 | 12.8 | 2150 |
| Cc1ccc(Nc2cc3ncn(-c4ccc(C(C)O)c(-n5nc(C#N)cc5C)n4)c3cc2C(F)(F)F)nn1 (stereo not drawn) [Example 275, 1-[3-(1-hydroxyethyl)-6-[5-[(6-methylpyridazin-3-yl)amino]-6-(trifluoromethyl)benzimidazol-1-yl]-2-pyridyl]-5-methyl-pyrazole-3-carbonitrile] | 6.1 | 15.9 | 800 |
| Cc1nnc(Nc2cc3ncn(-c4ccc(C(C)O)c(-n5nc(C#N)cc5C)n4)c3cc2F)o1 (stereo not drawn) [Example 377, 1-[6-[6-fluoro-5-[(5-methyl-1,3,4-oxadiazol-2-yl)amino]benzimidazol-1-yl]-3-(1-hydroxyethyl)-2-pyridyl]-5-methyl-pyrazole-3-carbonitrile] | 31.5 | 43.2 | 47 |
| Cc1ccc(Nc2ccc3ncn(-c4ccc(C(C)O)c(-n5nc(OC(F)F)cc5C(F)F)n4)c3c2)nn1 (stereo not drawn) [Example 405] | 19.8 | 150 | 39 |
| COc1cc2c(cc1Nc1cnc(C)nc1)ncn2-c1ccc([C@H](C)O)c(-n2nc(OC(F)F)cc2C)n1 [Example 400, (1S)-1-[2-[3-(difluoromethoxy)-5-methyl-pyrazol-1-yl]-6-[6-methoxy-5-[(2-methylpyrimidin-5-yl)amino]benzimidazol-1-yl]-3-pyridyl]ethanol] | 0.6 | 7.8 | 2 |
| Cc1ccc(Nc2ccc3c(c2)ncn3-c2ccc(C(C)O)c(N3CC(C#N)C4(CCC4)C3)n2)nn1 (stereo not drawn) [Example 359, 6-[3-(1-hydroxyethyl)-6-[5-[(6-methylpyridazin-3-yl)amino]benzimidazol-1-yl]-2-pyridyl]-6-azaspiro[3.4]octane-8-carbonitrile] | 25.3 | 4.6 | 1170 |
| Cc1cc(C(F)F)nn1-c1nc(-n2cnc3cc(Nc4cc5c(nn4)CCOC5)ccc32)ccc1CO [Example 317, [2-[3-(difluoromethyl)-5-methyl-pyrazol-1-yl]-6-[5-(7,8-dihydro-5H-pyrano[4,3-c]pyridazin-3-ylamino)benzimidazol-1-yl]-3-pyridyl]methanol] | 7.6 | 2.6 | 961 |

The remaining lines, values ahead:

| IC50 (SIK2) [nM] | IC50 (SIK3) [nM] | IC50 (SIK1) [nM] | Structure (SMILES) |
| --- | --- | --- | --- |
| 5.3 | 2.1 | 7 | Cc1ccc(Nc2ccc3c(c2)ncn3-c2ccc(C(C)O)c(-n3nc(C#N)cc3C)n2)nc1 (stereo not drawn) [Example 84, 1-[3-(1-hydroxyethyl)-6-[5-[(5-methyl-2-pyridyl)amino]benzimidazol-1-yl]-2-pyridyl]-5-methyl-pyrazole-3-carbonitrile] |
| 20.3 | 17.9 | 42 | Cc1ccc(-c2ccc3c(c2)ncn3-c2ccc(C(C)O)c(-n3nc(C#N)cc3C)n2)nn1 (stereo not drawn) [Example 340, 1-[3-(1-hydroxyethyl)-6-[5-(6-methylpyridazin-3-yl)benzimidazol-1-yl]-2-pyridyl]-5-methyl-pyrazole-3-carbonitrile] |
| 1 | 2.1 | 5 | Cc1cc(C#N)nn1-c1nc(-n2cnc3cc(Nc4cnn(C5CNC5)c4)ccc32)ccc1C(C)O (stereo not drawn) [Example 72, 1-[6-[5-[[1-(Azetidin-3-yl)pyrazol-4-yl]amino]benzimidazol-1-yl]-3-(1-hydroxyethyl)-2-pyridyl]-5-methyl-pyrazole-3-carbonitrile] |
| 7 | 1.8 | 391 | Cc1ccc(Nc2ccc3c(c2)ncn3-c2ccc(C(O)C(F)F)c(-n3nc(C#N)cc3C)n2)nn1 (stereo not drawn) [Example 198, 1-[3-(2,2-Difluoro-1-hydroxy-ethyl)-6-[5-[(6-methylpyridazin-3-yl)amino]benzimidazol-1-yl]-2-pyridyl]-5-methyl-pyrazole-3-carbonitrile] |
| 90.2 | 26.5 | 361 | Cc1cc(C#N)nn1-c1nc(-n2cnc3cc(NC4CCN(C)C(=O)C4)ccc32)ccc1C(C)O (stereo not drawn) [Example 155, 1-[3-(1-Hydroxyethyl)-6-[5-[(2-keto-1-methyl-4-piperidyl)amino]benzimidazol-1-yl]-2-pyridyl]-5-methyl-pyrazole-3-carbonitrile] |
| 181 | 66.1 | 450 | Cc1cc(C#N)nn1-c1nc(-n2cnc3cc(NC4CC(=O)N(C)C4)ccc32)ccc1C(C)O (stereo not drawn) [Example 161, 1-[3-(1-Hydroxyethyl)-6-[5-[(5-keto-1-methyl-pyrrolidin-3-yl)amino]benzimidazol-1-yl]-2-pyridyl]-5-methyl-pyrazole-3-carbonitrile] |
| 1.2 | 0.7 | 95 | Cc1cc(C#N)nn1-c1nc(-n2cnc3cc(Nc4cccnn4)ccc32)ccc1C(C)O (stereo not drawn) [Example 89, 1-[3-(1-Hydroxyethyl)-6-[5-(pyridazin-3-ylamino)benzimidazol-1-yl]-2-pyridyl]-5-methyl-pyrazole-3-carbonitrile] |
